{"source": "patent US20200030259A1", "about": "“Antiestrogens and/or Aromatase Inhibitors for Use in Treating Obesity and Related Symptoms” (Repros Therapeutics Inc., priority 2016, published 2020)", "key": {"[1]": {"system": "subjects in need of treatment for obesity", "assay": "Treating obesity with an antiestrogen (Example 2)", "assay_type": "in vivo", "settings": "5 mg to 100 mg daily or every other day for at least three months", "procedure": "Subjects in need of treatment for obesity are administered an amount of an antiestrogen (e.g. trans-clomiphene or a salt or analogue thereof) in an amount effective to increase LH and FSH to therapeutic levels over a treatment period of sufficient duration to achieve the desired result, preferably for a period of at least 3 months during which an effective dose is administered daily or every other day. FSH and LH levels may be assessed prior to initiating treatment and then monitored through the course of treatment to ensure that therapeutic levels of the pituitary hormones are reached. By way of nonlimiting example, a subject with obesity is administered 5 mg to 100 mg trans-clomiphene daily or every other day for a treatment period of at least three months, preferably at least six months."}, "[2]": {"system": "obese men with acquired hypogonadotropic hypogonadism", "assay": "Phase 2 clinical trial: free and total (LCMS) testosterone", "assay_type": "in vivo, human", "settings": "enclomiphene arms; FIG. 2B", "text": "(§1) FIGS. 2A and 2B illustrate lean mass (as a percentage of total mass in kilograms, measured by dual energy X-ray Absorptiometry (DXA)) and total testosterone levels at baseline and at the 3 month and 6 month time points in the subjects described at FIGS. 1A and 1B.\n(§2) A randomized double blind placebo-controlled Phase 2 clinical study (duration=6 months) was initiated to study the effects of trans-clomiphene on testosterone, metabolic function, weight, body composition, measures of strength and quality of life assessments (made throughout the study) in obese men with acquired hypogonadotropic hypogonadism.\n(§3) 50 adult male subjects are enrolled in the study with an average age of 43.3 (stdev 9.2), average BMI of 36.8 (stdev 3.2), average waist size of 46.9″ (stdev 4.1) and average body fat percentage of 38.1 (stdev 5.2). Average baseline testosterone levels in the subjects was 221.9 ng/dl (stdev 52.7), average estradiol level in the subjects was […] (stdev 14.8) and the average T:E ratio was 4.95 (stdev 1.7; normal range of T:E is 20-25). The top four reported baseline symptoms (by % of enrollees) were (i) fatigue/lack of energy (96%) (ii) depression, irritability, lack of focus (74%) (iii) poor libido (60%) and (iv) muscle weakness (48%). The subjects were provided a low calorie commercial diet for 6 months, gym membership for […] and access to a personal trainer for 6 months. […]"}, "[3]": {"system": "obese men with acquired hypogonadotropic hypogonadism", "assay": "Phase 2 clinical trial: DISF-SR, IWQOL and SF-36 total scores", "assay_type": "in vivo, human", "settings": "enclomiphene arms; 3 and 6 months; n=15 per group; FIG. 3", "text": "FIG. 3 illustrates percent improvement from baseline total score at the 3 month and 6 month time points in subjects described at FIGS. 1A and 1B (n=15 per group) in the DISF-SR (Derogatis Interview for Sexual Functioning), IWQOL (Impact of Weight on Quality of Life questionnaire) and SF-36 (Medical Outcomes Study Short Form).\nas §2\n50 adult male subjects are enrolled in the study with an average age of 43.3 (stdev 9.2), average BMI of 36.8 (stdev 3.2), average waist size of 46.9″ (stdev 4.1) and average body fat percentage of 38.1 (stdev 5.2). Average baseline testosterone levels in the subjects was 221.9 ng/dl (stdev 52.7), average estradiol level in the subjects was […] (stdev 14.8) and the average T:E ratio was 4.95 (stdev 1.7; normal range of T:E is 20-25). The top four reported baseline symptoms (by % of enrollees) were (i) fatigue/lack of energy (96%) (ii) depression, irritability, lack of focus (74%) (iii) poor libido (60%) and (iv) muscle weakness (48%). The subjects were provided a low calorie commercial diet for 6 months, gym membership for […] and access to a personal trainer for 6 months. Subjects were randomized to receive treatment with 12.5 mg enclomiphene/day, 25 mg enclomiphene/day or placebo via oral capsule over a […] period."}, "[4]": {"system": "obese men with acquired hypogonadotropic hypogonadism", "assay": "Phase 2 clinical trial: morning testosterone", "assay_type": "in vivo, human", "settings": "p<0.0001, FIG. 1B", "experimental": "50 adult male subjects are enrolled in the study with an average age of 43.3 (stdev 9.2), average BMI of 36.8 (stdev 3.2), average waist size of 46.9″ (stdev 4.1) and average body fat percentage of 38.1 (stdev 5.2). Average baseline testosterone levels in the subjects was 221.9 ng/dl (stdev 52.7), average estradiol level in the subjects was 48.1 μg/ml (stdev 14.8) and the average T:E ratio was 4.95 (stdev 1.7; normal range of T:E is 20-25). […] The subjects were provided a low calorie commercial diet for 6 months, gym membership for 15 month and access to a personal trainer for 6 months. Subjects were randomized to receive treatment with 12.5 mg enclomiphene/day, 25 mg enclomiphene/day or placebo via oral capsule over a three month period."}, "[5]": {"system": "obese men with acquired hypogonadotropic hypogonadism", "assay": "Phase 2 clinical trial: lean mass by dual energy X-ray Absorptiometry (DXA)", "assay_type": "in vivo, human", "settings": "placebo arm lost lean mass, FIG. 2A", "text": "as §1, §2, §3"}}, "data": [{"smiles": "CCN(CC)CCOc1ccc(/C(=C(/Cl)c2ccccc2)c2ccccc2)cc1", "note": "[enclomiphene, trans-clomiphene]", "values": [{"measurement": "symptoms of obesity during treatment", "setting": "[1]", "result": "reduction in one or more symptoms of obesity is observed"}, {"measurement": "free testosterone, baseline to six month time point", "setting": "[2]", "result": "increases"}, {"measurement": "total (LCMS) testosterone, baseline to six month time point", "setting": "[2]", "result": "increases"}, {"measurement": "percent improvement relative to baseline in DISF-SR total score", "setting": "[3]", "result": "statistically significant from baseline"}, {"measurement": "percent improvement relative to baseline in IWQOL total score", "setting": "[3]", "result": "statistically significant from baseline"}, {"measurement": "percent improvement relative to baseline in SF-36 total score", "setting": "[3]", "result": "statistically significant from baseline"}, {"measurement": "morning testosterone at six months", "setting": "[4]; 12.5 mg enclomiphene/day oral capsule with weight loss regimen, baseline ~235 ng/dl", "result": "~505", "unit": "ng/dL"}, {"measurement": "morning testosterone at six months", "setting": "[4]; 25 mg enclomiphene/day oral capsule with weight loss regimen, baseline ~285 ng/dl", "result": "~605", "unit": "ng/dL"}, {"measurement": "lean mass (percentage of total mass, DXA) at six months", "setting": "[5]; 12.5 mg enclomiphene arm", "result": "gained lean mass"}, {"measurement": "lean mass (percentage of total mass, DXA) at six months", "setting": "[5]; 25 mg enclomiphene arm", "result": "gained lean mass"}]}]}
